Read-outs that look alike come from different tables or passages of the source. One block for each molecule: values may come before it.
Experiments:
ScLac [1] = conditions: read-out: ABTS; 100 mM MES pH 5.5, 30 °C; free enzyme, copper-loaded; substrate 5–95 µM
ScLac [2] = tested on: T1, ScLac; assay: spectrophotometric oxidation, […] nm; format: biochemical, Streptomyces cyaneus; conditions: 100 mM MES pH 5.5, 30 °C; free enzyme, copper-loaded; substrate 5–95 µM; read-out: DMP
T1 construct: C-terminal His6 tag (pET-22b(+), NdeI/XhoI), expressed in E. coli BL21 (DE3) Star; primers encode N-terminus METDIIER and C-terminal HGAGHTG before the LE-His6 tag; copper-loaded with CuSO4 after purification

ScLac [3] = tested on: T1, ScLac; assay: spectrophotometric oxidation, […] nm; format: biochemical, Streptomyces cyaneus; conditions: 100 mM MES pH 5.5, 30 °C; free enzyme, copper-loaded; substrate 5–95 µM; read-out: Guaiacol

- Km (ScLac [1]): 33.5 ± 27.9 µM
Compound: CCn1c(=NN=c2sc3cc(S(=O)(=O)O)ccc3n2CC)sc2cc(S(=O)(=O)O)ccc21 [ABTS]

- Km (ScLac [2]): 202 ± 34.8 µM
Compound: COc1cccc(OC)c1O [DMP, 2,6-dimethoxyphenol]

- Km (ScLac [3]): 5.4 ± 1.9 µM
Compound: COc1ccccc1O [guaiacol]

Source: publication PMC5403781, “Heterologous expression of a Streptomyces cyaneus laccase for biomass modification applications” (AMB Express, 2017)
